The subject of series [1] is HEK-293T. Description: Induction of morphological changes in human HEK293T cells assessed as mitochondrial damage at 1 to 10 uM incubated for 18 hrs by confocal fluorescence microscopic analysis. It counts as toxicity, cell-based. The conditions noted are these: dose 1-10 µM.
Series [2] can be described thus: Inhibition of human CK2alpha2 using RRRDDDSDDD peptide as substrate in presence of [gamma-33P]ATP by radiometric based scintillation proximity assay. (Scintillation proximity formats need no separation of bound from free tracer.)
Series [3] deals with T1, Serine/threonine-protein kinase 17A (Homo sapiens) (UniProt Q9UEE5).
T1 sequence (whole entry): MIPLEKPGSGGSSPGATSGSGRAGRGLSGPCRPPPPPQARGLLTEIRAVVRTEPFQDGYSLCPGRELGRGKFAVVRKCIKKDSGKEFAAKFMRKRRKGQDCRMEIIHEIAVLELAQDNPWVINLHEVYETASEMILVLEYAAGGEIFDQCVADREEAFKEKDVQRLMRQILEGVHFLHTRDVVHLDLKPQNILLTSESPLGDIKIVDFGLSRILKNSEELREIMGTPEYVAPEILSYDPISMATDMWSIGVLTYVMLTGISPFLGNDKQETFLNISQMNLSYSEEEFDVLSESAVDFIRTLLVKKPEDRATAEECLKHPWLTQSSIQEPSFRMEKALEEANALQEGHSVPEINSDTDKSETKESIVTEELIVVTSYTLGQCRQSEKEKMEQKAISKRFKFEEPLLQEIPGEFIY
Briefly: Binding affinity to human N-terminal His-tagged/ TEV cleavage fused DRAK1 (39 to 369 residues) expressed in Escherichia coli assessed as change in melting temperature at 10 uM by SYPRO orange dye based DSF assay. In general terms: DSF heats the sample and reads unfolding from a dye or from intrinsic fluorescence.

Series [4] can be described thus: Cytotoxicity against human MRC9 cells assessed as increase in total apoptotic cells incubated for 36 hrs by Annexin V staining based method. The class given is toxicity, cell-based.
A short description of series [5]: Cytotoxicity against human MRC9 cells at 1 uM incubated for 36 hrs. It counts as toxicity, cell-based. The note with it: mrc9, 36 h.
The subject of series [6] is HEK-293T. Briefly: Cytotoxicity against human HEK293T cells assessed as increase in total apoptotic cells at 10 uM incubated for 36 hrs by Annexin V staining based method. The class given is toxicity, cell-based.
A short description of series [7]: Induction of morphological changes in human MRC9 cells assessed as mitochondrial damage at 1 to 10 uM incubated for 18 hrs by confocal fluorescence microscopic analysis. The class given is toxicity, cell-based. The note with it: mrc9, 18 h, dose 1-10 µM.
Series [8] concerns LN-18. Briefly: Antiproliferative activity against human LN-18 cells assessed as reduction in cell viability after 1 to 7 days by resazurin dye based fluorimetric analysis. The class given is functional. For orientation: Alamar Blue is a resazurin reagent that responds to reducing activity.
The target in series [9] is T1, Serine/threonine-protein kinase 17A (Homo sapiens). Briefly: Inhibition of human N-terminal His-tagged/ TEV cleavage fused DRAK1 (39 to 369 residues) expressed in Escherichia coli assessed as gibbs free energy change by isothermal titration calorimetry.
For series [10], the target named is Casein kinase II subunit alpha (Homo sapiens, UniProt P68400). Description: Inhibition of human CK2alpha1 using RRRDDDSDDD peptide as substrate in presence of [gamma-33P]ATP by radiometric based scintillation proximity assay.
Sequence of Casein kinase II subunit alpha (P68400 whole entry): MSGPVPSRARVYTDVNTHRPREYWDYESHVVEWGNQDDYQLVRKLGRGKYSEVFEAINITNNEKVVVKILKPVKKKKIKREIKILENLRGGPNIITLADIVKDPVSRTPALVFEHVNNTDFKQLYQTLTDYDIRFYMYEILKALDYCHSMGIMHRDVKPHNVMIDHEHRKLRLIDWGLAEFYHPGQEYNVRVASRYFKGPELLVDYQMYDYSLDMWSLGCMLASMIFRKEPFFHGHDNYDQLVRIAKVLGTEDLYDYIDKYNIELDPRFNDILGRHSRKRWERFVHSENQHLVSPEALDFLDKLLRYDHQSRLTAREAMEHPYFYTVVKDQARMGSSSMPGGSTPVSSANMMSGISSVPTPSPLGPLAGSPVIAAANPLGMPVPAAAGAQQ
Series [11] concerns the target T2, Cyclin-G-associated kinase (Homo sapiens, UniProt O14976).
T2 sequence (O14976 whole entry): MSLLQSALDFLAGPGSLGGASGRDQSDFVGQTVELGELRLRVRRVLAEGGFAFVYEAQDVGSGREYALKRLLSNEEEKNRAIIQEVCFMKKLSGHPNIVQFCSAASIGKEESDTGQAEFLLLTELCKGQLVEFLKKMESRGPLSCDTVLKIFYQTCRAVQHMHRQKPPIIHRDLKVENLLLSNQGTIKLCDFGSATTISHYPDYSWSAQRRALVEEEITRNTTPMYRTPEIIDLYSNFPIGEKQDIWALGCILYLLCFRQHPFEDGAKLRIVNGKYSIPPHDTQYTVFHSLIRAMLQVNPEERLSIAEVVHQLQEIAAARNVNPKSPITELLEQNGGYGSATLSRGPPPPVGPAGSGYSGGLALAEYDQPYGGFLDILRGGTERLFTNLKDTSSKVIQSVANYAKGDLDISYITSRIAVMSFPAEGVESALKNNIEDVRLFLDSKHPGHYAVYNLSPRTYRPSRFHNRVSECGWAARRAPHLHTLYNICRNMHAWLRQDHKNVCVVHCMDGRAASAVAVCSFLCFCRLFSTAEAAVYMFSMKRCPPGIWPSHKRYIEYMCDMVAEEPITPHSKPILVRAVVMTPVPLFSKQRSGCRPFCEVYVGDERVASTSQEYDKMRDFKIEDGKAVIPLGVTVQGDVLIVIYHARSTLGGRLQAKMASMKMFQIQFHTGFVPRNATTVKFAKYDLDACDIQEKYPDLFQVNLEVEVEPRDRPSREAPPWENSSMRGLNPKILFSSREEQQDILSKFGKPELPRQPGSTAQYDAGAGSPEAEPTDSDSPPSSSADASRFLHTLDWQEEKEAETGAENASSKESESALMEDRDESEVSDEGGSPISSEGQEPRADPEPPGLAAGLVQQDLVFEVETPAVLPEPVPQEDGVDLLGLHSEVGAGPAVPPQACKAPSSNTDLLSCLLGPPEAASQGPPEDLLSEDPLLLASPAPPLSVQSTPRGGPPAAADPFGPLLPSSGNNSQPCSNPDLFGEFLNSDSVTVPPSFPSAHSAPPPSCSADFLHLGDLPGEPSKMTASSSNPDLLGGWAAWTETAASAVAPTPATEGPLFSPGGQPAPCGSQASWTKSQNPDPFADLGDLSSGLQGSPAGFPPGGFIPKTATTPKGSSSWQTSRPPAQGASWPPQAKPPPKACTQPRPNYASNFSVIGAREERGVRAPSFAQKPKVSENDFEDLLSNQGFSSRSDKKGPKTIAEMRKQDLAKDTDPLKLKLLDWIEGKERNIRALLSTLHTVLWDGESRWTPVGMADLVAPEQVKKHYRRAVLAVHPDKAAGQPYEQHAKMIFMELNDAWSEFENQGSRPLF
Description: Inhibition of GAK (unknown origin) transfected in HEK293T cells using NanoBRET NanoGlo as substrate incubated for 2 hrs by NanoBRET assay. The class given is cell-based.

In series [12] the test system is HEK-293T. Briefly: Induction of morphological changes in human HEK293T cells assessed as microtubule damage at 1 to 10 uM incubated for 18 hrs by confocal fluorescence microscopic analysis. It counts as toxicity, cell-based. The conditions noted are these: dose 1-10 µM.
In series [13] the target is BMP-2-inducible protein kinase (Homo sapiens, UniProt Q9NSY1). Briefly: Inhibition of BIKE (unknown origin) transfected in HEK293T cells using NanoBRET NanoGlo as substrate incubated for 2 hrs by NanoBRET assay. The class given is cell-based.
Sequence of BMP-2-inducible protein kinase (Q9NSY1 whole entry): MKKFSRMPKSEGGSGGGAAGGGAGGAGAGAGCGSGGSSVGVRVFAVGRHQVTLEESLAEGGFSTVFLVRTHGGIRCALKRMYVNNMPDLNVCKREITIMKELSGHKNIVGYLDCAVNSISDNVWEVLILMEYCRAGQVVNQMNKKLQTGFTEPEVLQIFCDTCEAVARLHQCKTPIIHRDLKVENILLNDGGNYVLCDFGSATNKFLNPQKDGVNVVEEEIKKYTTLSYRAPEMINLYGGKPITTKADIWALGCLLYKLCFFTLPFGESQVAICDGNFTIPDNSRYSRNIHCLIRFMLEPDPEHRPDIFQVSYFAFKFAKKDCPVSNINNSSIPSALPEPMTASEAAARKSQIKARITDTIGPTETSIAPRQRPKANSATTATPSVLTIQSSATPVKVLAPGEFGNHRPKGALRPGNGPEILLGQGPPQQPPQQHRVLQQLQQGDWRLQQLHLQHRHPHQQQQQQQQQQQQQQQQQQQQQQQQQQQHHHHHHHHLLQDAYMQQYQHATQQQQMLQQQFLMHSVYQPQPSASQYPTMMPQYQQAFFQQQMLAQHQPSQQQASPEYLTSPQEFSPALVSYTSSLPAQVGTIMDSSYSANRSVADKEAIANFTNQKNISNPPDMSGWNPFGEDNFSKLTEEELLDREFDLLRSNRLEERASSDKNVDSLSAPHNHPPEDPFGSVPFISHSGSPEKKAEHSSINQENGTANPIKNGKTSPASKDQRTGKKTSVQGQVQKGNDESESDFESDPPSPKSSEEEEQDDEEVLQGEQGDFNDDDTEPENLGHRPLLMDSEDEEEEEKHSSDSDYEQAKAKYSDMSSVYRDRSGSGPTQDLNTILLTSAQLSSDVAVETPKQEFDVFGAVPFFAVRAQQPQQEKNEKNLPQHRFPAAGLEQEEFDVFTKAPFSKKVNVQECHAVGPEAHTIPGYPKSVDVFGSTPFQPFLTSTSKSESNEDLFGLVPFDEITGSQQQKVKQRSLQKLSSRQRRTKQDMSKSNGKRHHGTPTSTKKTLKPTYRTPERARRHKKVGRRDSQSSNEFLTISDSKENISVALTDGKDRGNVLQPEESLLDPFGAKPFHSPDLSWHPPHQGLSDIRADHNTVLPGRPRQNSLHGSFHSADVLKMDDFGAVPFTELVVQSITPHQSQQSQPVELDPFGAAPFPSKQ
The target of series [14] is T3, Serine/threonine-protein kinase 17A (Homo sapiens, UniProt Q9UEE5).
T3 sequence (Q9UEE5 whole entry): T1 sequence (whole entry)
Description: Inhibition of human N-terminal His-tagged/ TEV cleavage fused DRAK1 (39 to 369 residues) expressed in Escherichia coli using KKLNRTLSFAEPG peptide as substrate in presence of [gamma-33P]ATP by radiometric based scintillation proximity assay.

Series [15] can be described thus: Induction of morphological changes in human MRC9 cells assessed as microtubule damage at 1 to 10 uM incubated for 18 hrs by confocal fluorescence microscopic analysis. The note with it: mrc9, 18 h, dose 1-10 µM. The class given is toxicity, cell-based.
Series [16] concerns the target T1, Serine/threonine-protein kinase 17A (Homo sapiens). Description: Inhibition of human N-terminal His-tagged/ TEV cleavage fused DRAK1 (39 to 369 residues) expressed in Escherichia coli assessed as change in entropy by isothermal titration calorimetry.

Usually IC50 stands for the concentration that inhibits the measured activity by half. The ΔTm is the shift of the melting midpoint relative to a reference. By EC50 is commonly meant the concentration giving half of the maximal effect.

Take `CC(C)(C)NC(=O)c1ccc2cc1OCCOCCNc1ccn3ncc-2c3n1`: the Activity entry in series [1] is “Non-Toxic”; in series [5] it was “Non-Toxic”; in series [6], “Toxic”; in series [7] it was “Non-Toxic”; in series [12], “Non-Toxic”; in series [15], “Non-Toxic”. Moreover, the IC50 in series [2] turned out to be 0.38 µM; in series [10] it was 0.95 µM; in series [11], 24 µM; in series [13], 8 µM; in series [14] it was 0.049 µM. Moreover, the thermal shift (ΔTm) in series [3] was 11.3 °C. The EC50 at 36 h in [4] was greater than 10 µM. The EC50 in [8] came out at 11.2 µM. In addition, in [9], the deltaG is -10.6 kcal/mol. In series [16], the deltaS stood at 11.1 cal/mol.K.

For the origin of these results see ChEMBL document CHEMBL5154923 (J Med Chem, 2022).
